Experimental data taken from US20070154393A1, “Bioassay for volatile low molecular weight insecticides and methods of use” (priority 2005, published 2007).
Where two headings read alike, the source gives them in different places.

What was measured:
[1] = system: metabolically resistant Hikone-R strain of Drosophila; format: in vivo; settings: Table 3, Hikone-R, 24 hr
Description: (§1) All experimental materials were purchased from Sigma-Aldrich-Fluka (Milwaukee, Wis.) and were of 99% purity or greater. […] All volatile insecticide stocks were prepared at 100 μg/μl in analytical grade acetone. Rather than weigh the highly volatile liquid insecticides (i.e., all compounds except benzothiophene), weight was determined based on the density-volume relationship of each compound. Four serial dilutions were prepared and tested for each insecticide as described previously (Scharf et al., 2006). The insecticide synergists PBO (piperonyl butoxide) and DEF (SSS-tributyl-phosphoro-trithioate) were obtained from Fluka Chemical Co. (Basel, Switzerland) and Mobay Chemical Co. (Kansas City, Mo.). Both synergists were >95% purity. Synergist stocks were prepared at 100 μg/ml in analytical grade acetone.
(§2) Volatility bioassays were conducted exactly as described in a previous report (Scharf et al., 2006). Briefly, bioassays took place in 0.5-l glass jars with metal lids. Mixed-sex flies were isolated from lab colonies and placed in 4-ml dram vials in groups of ten, along with a dried piece of laboratory diet. The dram vials were capped with open-top septum caps that were covered with fine mesh (held in place by non-toxic glue). For bioassays, the assembled dram vials were placed into the 0.5-l jars along with a folded filter paper “tent” (Whatman #1; Vineland, N.J.). The filter paper was treated with either an insecticide dilution or acetone, the jar was sealed with the metal lid, and the bioassay proceeded for 24-hr at room temperature. Mortality was scored based on a complete lack of movement by the flies. Four concentrations plus an acetone control were tested for all insecticides. Between five and ten replicates were performed for each concentration range on each strain-insecticide combination. Synergist bioassays were performed with a slight modification. Synergist stocks were applied to dram vials at 100 μl per vial to provide assay concentrations of 10 μg per vial. […] After treatment, vials were held at an angle in a fume hood and rotated ¼-turn each minute until the acetone evaporated. Flies and diet were added as above and held for 1-hr. Assays were initiated, run, and scored as above.
(§3) Probit analysis was performed using PROC PROBIT in the SAS software package (SAS Institute; Cary, N.C.). If control mortality ever exceeded 10% in a given replicate, that replicate was discarded. Toxicity and synergist ratios at LC50 were compared statistically using the calculation described by Robertson and Preisler (1992). Using this procedure, ratios with 95% confidence intervals were calculated using a spreadsheet-based program. With this calculation, if confidence intervals include 1.0 then ratios are considered non-significant (p>0.05; Robertson and Preisler, 1992).

[2] = system: insecticide-susceptible Canton-S strain of Drosophila; format: in vivo; settings: for Slope ± Std. Error (probit mortality line): Table 3, Canton-S, 24 hr
Description: as §1, §2, §3

[3] = system: Rd1 (Rdl-R) strain of Drosophila (GABA-gated chloride channel point mutation); format: in vivo, Drosophila melanogaster; settings: Table 2; Rdl-R, 24 hr
From the text: Four Drosophila strains were used, all obtained from the Bloomington Drosophila Stock Center (Indiana University; Bloomington, Ind.). The Canton-S strain was used as the insecticide-susceptible standard. The Hikone-R strain is metabolically-resistant with elevated cytochrome P450 levels (Waters et al., 1984; Sundseth et al., 1989; Le Goff et al., 2003; Festucci-Buselli et al., 2005). Hikone-R is resistant to a number of insecticides, including malathion, DDT and neonicotinoids (Sundseth et al., 1989; Daborn et al., 2001). Two resistant neurological-mutant strains were also tested. […] Flies were reared in 100-ml vials capped with acetate plugs (Fisher Scientific; Suwanee, Ga.) on a commercial diet (JAZZ-MIX; Fisher Scientific). Flies were reared on a 12:12 photocycle at 24° C. and 60% relative humidity. Mixed-sex adults, less than 1-wk old, were used in bioassays.
as §1, §2, §3

[4] = system: metabolically-resistant Hikone-R strain of Drosophila (elevated cytochrome P450); format: in vivo; settings: Hikone-R, 24 hr
Description: (§4) Four Drosophila strains were used, all obtained from the Bloomington Drosophila Stock Center (Indiana University; Bloomington, Ind.). The Canton-S strain was used as the insecticide-susceptible standard. […] Two resistant neurological-mutant strains were also tested. […] Flies were reared in 100-ml vials capped with acetate plugs (Fisher Scientific; Suwanee, Ga.) on a commercial diet (JAZZ-MIX; Fisher Scientific). […] Mixed-sex adults, less than 1-wk old, were used in bioassays.
(§5) All volatile insecticide stocks were prepared at 100 μg/μl in analytical grade acetone. Rather than weigh the highly volatile liquid insecticides (i.e., all compounds except benzothiophene), weight was determined based on the density-volume relationship of each compound. […] The insecticide synergists PBO (piperonyl butoxide) and DEF (SSS-tributyl-phosphoro-trithioate) were obtained from Fluka Chemical Co. (Basel, Switzerland) and Mobay Chemical Co. (Kansas City, Mo.). […] Synergist stocks were prepared at 100 μg/ml in analytical grade acetone.
(§6) Briefly, bioassays took place in 0.5-l glass jars with metal lids. Mixed-sex flies were isolated from lab colonies and placed in 4-ml dram vials in groups of ten, along with a dried piece of laboratory diet. The dram vials were capped with open-top septum caps that were covered with fine mesh (held in place by non-toxic glue). For bioassays, the assembled dram vials were placed into the 0.5-l jars along with a folded filter paper “tent” (Whatman #1; Vineland, N.J.). The filter paper was treated with either an insecticide dilution or acetone, the jar was sealed with the metal lid, and the bioassay proceeded for 24-hr at room temperature. Mortality was scored based on a complete lack of movement by the flies. Four concentrations plus an acetone control were tested for all insecticides. Between five and ten replicates were performed for each concentration range on each strain-insecticide combination. Synergist bioassays were performed with a slight modification. Synergist stocks were applied to dram vials at 100 μl per vial to provide assay concentrations of 10 μg per vial. […] After treatment, vials were held at an angle in a fume hood and rotated ¼-turn each minute until the acetone evaporated. Flies and diet were added as above and held for 1-hr. Assays were initiated, run, and scored as above.
(§7) Probit analysis was performed using PROC PROBIT in the SAS software package (SAS Institute; Cary, N.C.). If control mortality ever exceeded 10% in a given replicate, that replicate was discarded.

[5] = system: para-ts1 (para-R) strain of Drosophila (sodium channel point mutation); format: in vivo; settings: for Slope ± Std. Error (probit mortality line): Table 2, para-R, 24 hr
Description: as §4, §5, §6, §7

| Substance | Slope ± Std. Error (probit mortality line) ([1]; +DEF 10 μg per bioassay vial) | Slope ± Std. Error (probit mortality line) ([1]; +PBO 10 μg per bioassay vial) | Slope ± Std. Error (probit mortality line) ([2]; +DEF 10 μg per bioassay vial) | Slope ± Std. Error (probit mortality line) ([2]; +PBO 10 μg per bioassay vial) | DEF synergism ratio (LC50 with synergist÷LC50 without) ([2]; esterase inhibitor DEF, reduction in toxicity, strain not given, fits Canton-S of Table 3) [fold] | Slope ± Std. Error (probit mortality line) [3] | Slope ± Std. Error (probit mortality line) ([4]; Table 2) | Slope ± Std. Error (probit mortality line) ([4]; Table 3, no synergist) | Slope ± Std. Error (probit mortality line) [5] | response of para-ts1 relative to Canton-S (LC50 ratio, FIG. 7B), in words ([5]; significance at p<0.05, method of Robertson and Preisler) |
| --- | --- | --- | --- | --- | --- | --- | --- | --- | --- | --- |
| ethyl formate | 14.17 ± 1.80 | 5.17 ± 1.28 | 1.73 ± 1.35 | 4.74 ± 1.44 | > 12 | 6.38 ± 1.91 | 12.50 ± 7.10 | 12.50 ± 7.10 | 7.11 ± 1.34 | non-significant tolerance |
| methyl formate | 1.91 ± 0.60 | 51.10 | 3.98 ± 1.52 | 49.50 |  | 9.41 ± 2.14 | 2.72 ± 0.68 | 2.72 ± 0.68 | 8.84 ± 1.46 |  |
